Results taken from article PMC10520499, “Next step in the development of mesoprogestins: the preclinical profile of EC313” (Frontiers in Endocrinology, 2023).

Target: T1, human androgen receptor (Homo sapiens, UniProt P10275)
T1 construct: host or cells: CHO, transient co-transfection
T1 sequence (P10275 1-920): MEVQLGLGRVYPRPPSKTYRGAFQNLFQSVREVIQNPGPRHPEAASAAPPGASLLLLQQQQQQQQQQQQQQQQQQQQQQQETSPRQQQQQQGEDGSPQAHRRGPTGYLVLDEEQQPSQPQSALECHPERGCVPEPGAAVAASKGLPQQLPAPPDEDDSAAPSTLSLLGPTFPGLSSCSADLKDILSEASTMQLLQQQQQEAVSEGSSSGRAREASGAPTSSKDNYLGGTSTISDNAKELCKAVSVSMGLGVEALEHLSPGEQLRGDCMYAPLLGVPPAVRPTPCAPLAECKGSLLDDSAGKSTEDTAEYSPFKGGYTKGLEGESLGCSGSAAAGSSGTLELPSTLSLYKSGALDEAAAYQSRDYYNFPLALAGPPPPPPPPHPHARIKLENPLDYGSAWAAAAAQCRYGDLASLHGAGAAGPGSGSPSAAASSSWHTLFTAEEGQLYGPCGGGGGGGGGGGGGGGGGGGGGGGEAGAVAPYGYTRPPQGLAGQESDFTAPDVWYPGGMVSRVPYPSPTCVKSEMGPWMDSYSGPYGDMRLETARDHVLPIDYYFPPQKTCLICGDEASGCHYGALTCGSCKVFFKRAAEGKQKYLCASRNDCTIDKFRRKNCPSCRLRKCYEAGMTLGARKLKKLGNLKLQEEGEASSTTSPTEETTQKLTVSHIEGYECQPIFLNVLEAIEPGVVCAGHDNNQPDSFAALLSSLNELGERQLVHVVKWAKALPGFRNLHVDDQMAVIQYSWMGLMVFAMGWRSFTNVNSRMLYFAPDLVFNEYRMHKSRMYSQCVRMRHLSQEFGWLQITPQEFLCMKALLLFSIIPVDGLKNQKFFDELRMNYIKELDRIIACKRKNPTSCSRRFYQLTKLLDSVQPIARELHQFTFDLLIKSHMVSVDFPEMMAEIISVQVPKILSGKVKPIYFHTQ
Test: AR transactivation (CHO, MMTV-LUC)
Assay type: cell-based
Protocol: The androgen transactivation potential of EC313 was studied in the CHO cell line expressing this steroid protein receptor. The cells were co-transfected with a vector encoding a human full-length androgen receptor (hAR) linked to the reporter vector MMTV/LUC. To produce high protein expression, transient transfections were carried out. […] Agonist and antagonist properties of EC313 toward tested receptor AR were analyzed using luminescence detection.
To prepare the transfection assay, plasmids were generated and isolated. Plasmid included vector coding sequences for the receptor as well as the reporter gene. Vector pcDNA3.1 coding sequence for the full length of human AR (AR cDNA ORF clone in pcDNA3.1+/C-(K)-DYK) was used as an expression vector for AR. Vector pGL4.36 coding for the androgen-responsive element (MMTV) linked to Firefly luciferase [luc2P/Hygro] was used as a reporter system (pGL4.36-MMTV/LUC).
Co-transfection was performed on a 96-well plate (16x10^3 cells per well) in culture medium (RPMI w/o phenol red, 10% FBS, L-Glu) w/o antibiotics using transfection reagents following the manufacturer’s instructions. Prior to transfection, plated cells were approximately 70%–80% confluent. After 24h of transfection, medium was removed to a culture medium and cells were treated for the next 24h with the test compounds.
After incubating the cells for 24h with the tested compounds, the luciferase activity was analyzed.

**Q.** What does the source list for `C[C@]12C[C@H](c3ccc(-c4ccoc4)cc3)C3=C4CCC(=O)C=C4CC[C@H]3[C@@H]1CC[C@]21OCCC1=C(F)F` [EC313]?
**A.** fold higher concentration for the same androgenic effect vs Metribolone (AR agonism): 38 fold; EC50 (AR, three experiments, read-out: EC50, agonistic activity): 280 nM; antagonistic activity (AR, vs 13 nM Metribolone): No antagonistic activity
